Patent publication US8563717B2, “Adenine derivatives” (GlaxoSmithKline LLC, priority 2008, dated 2013)

These compounds were tested on Interferon-α (assay: Induction of Interferon-α using cryopreserved human PBMCs). Settings: PBMC, 24 h incubation, normalised to 1 uM resiquimod, read-out: mean pEC50 for induction of IFN-α (converted).
Assay type: cell-based
Description: Assay for the Induction of Interferon-α Using Cryopreserved Human Peripheral Blood Mononuclear Cells (PBMCs)
Compounds were dissolved in DMSO. Serial 2-fold dilutions with DMSO were prepared and 0.25 μl dispensed into 384-well clear Greiner polypropylene plates.
Blood samples of up to 200 ml were obtained from healthy human donors. Whole blood in 25 ml volumes was overlaid onto 15 ml Ficoll gradients in Leucosep tubes, and centrifuged at 1000 g for 20 min. Cells in the band at the plasma/histopaque interface were carefully removed and washed twice with PBS (centrifuged at 400 g for 5 min to harvest). The final pellet was resuspended in freezing medium (90% Heat-inactivated serum, 10% DMSO) to a cell concentration of 4×10^7 cells/ml. The resuspended cells were then cryopreserved (frozen) using a rate controlled freezer, and stored at −140° C. for up to 4 months.
Immediately prior to assay, vials of cryopreserved (frozen) PBMCs were thawed rapidly in a water bath at 37° C. A 1:10 dilution of the cells in trypan blue was prepared and counted. The PBMCs were then diluted in growth media [RPMI 1640 containing 10% fetal calf serum (invitrogen), Penicillin+[…] (Gibco cat. #25030-024, 1:50), L-Glutamine 2 mM, and 1000 units/ml recombinant human IFN-gamma (Preprotech catalogue #300-02)] to a density of 1×10^6 cells/ml, and 50 ul/well dispensed to 384-well clear Greiner polypropylene plates containing 0.25 μl DMSO or test compound in 0.25 μl DMSO. […] Plates were incubated for 24 h at 37° C. in 5% CO2.
A multi-isoform immunoassay was used to quantify IFN-α in PBMC supernatants. Rabbit polyclonal antibody against human IFN-α (catalogue number 31101, Stratech Scientific) was diluted 1:10000 in assay buffer (RPMI 1640 containing 10% fetal calf serum, Invitrogen) and 20 μl was added to each well of an MSD (Meso-Scale Discovery) single small-spot 384-well GAR (goat anti-rabbit antibody coated) plate. The plate was incubated for 1 hour at room temperature with vigorous shaking. Following three washes with PBS, 20 μl of cell supernatant were added to each well of the plate. The plate was then incubated for 1 hour at room temperature with vigorous shaking. A pair of monoclonal antibodies to IFN-α (catalogue numbers 21100 and 21112, Stratech Scientific) were labelled with sulfo-TAG (MSD), diluted 1:1000 in assay buffer and 20 μl added to each well of the plate. The plate was further incubated for 1 hour at room temperature with vigorous shaking. Following three washes with PBS, 30 μl of x2 T buffer (MSD) was added to each well and the plate was read on an MSD Sector 6000 plate reader.
Data were normalised to internal plate controls of 1 uM resiquimod (n=16) and DMSO (n=16). pEC50 values were derived by 4-parameter curve fit with IRLS in ActivityBase, from 11-point, two-fold serial dilution of test compounds.

SMILES | EC50 [nM]
CCCCOc1nc(N)c2[nH]c(=O)n(CCC3CCN(CCCC)CC3)c2n1 [Example 82, 6-Amino-2-(butyloxy)-9-[2-(1-butyl-4-piperidinyl)ethyl]-7,9-dihydro-8H-purin-8-one] | < 1580
CCCCOc1nc(N)c2[nH]c(=O)n(CCC3CCN(CC(C)C)CC3)c2n1 [Example 83, 6-Amino-2-(butyloxy)-9-{2-[1-(2-methylpropyl)-4-piperidinyl]ethyl}-7,9-dihydro-8H-purin-8-one] | < 1580
CCCCOc1nc(N)c2[nH]c(=O)n(CCC3CCN(C(CC)CC)CC3)c2n1 [Example 84, 6-Amino-2-(butyloxy)-9-{2-[1-(1-ethylpropyl)-4-piperidinyl]ethyl}-7,9-dihydro-8H-purin-8-one] | < 1580
CCCCOc1nc(N)c2[nH]c(=O)n(CCC3CCN(CCC(C)C)CC3)c2n1 [Example 85, 6-Amino-2-(butyloxy)-9-{2-[1-(3-methylbutyl)-4-piperidinyl]ethyl}-7,9-dihydro-8H-purin-8-one] | < 1580
CCCCOc1nc(N)c2[nH]c(=O)n(CCC3CCN(C4CCCC4)CC3)c2n1 [Example 86, 6-Amino-2-(butyloxy)-9-[2-(1-cyclopentyl-4-piperidinyl)ethyl]-7,9-dihydro-8H-purin-8-one] | < 1580
CCCCOc1nc(N)c2[nH]c(=O)n(CCC3CCN(CC4CCCC4)CC3)c2n1 [Example 87, 6-Amino-2-(butyloxy)-9-{2-[1-(cyclopentylmethyl)-4-piperidinyl]ethyl}-7,9-dihydro-8H-purin-8-one] | < 1580
CCCCOc1nc(N)c2[nH]c(=O)n(CCC3CCN(C4CCCCC4)CC3)c2n1 [Example 88, 6-Amino-2-(butyloxy)-9-[2-(1-cyclohexyl-4-piperidinyl)ethyl]-7,9-dihydro-8H-purin-8-one] | < 1580
CCCCOc1nc(N)c2[nH]c(=O)n(CCC3CCN(CCC4CCCCC4)CC3)c2n1 [Example 89, 6-Amino-2-(butyloxy)-9-{2-[1-(2-cyclohexylethyl)-4-piperidinyl]ethyl}-7,9-dihydro-8H-purin-8-one] | < 1580
CCC[C@H](C)Oc1nc(N)c2[nH]c(=O)n(CCC3CCNCC3)c2n1 [Example 90, 6-Amino-2-{[(1S)-1-methylbutyl]oxy}-9-[2-(4-piperidinyl)ethyl]-7,9-dihydro-8H-purin-8-one] | < 1580
CCCCOc1nc(N)c2[nH]c(=O)n(CCCC3CCNCC3)c2n1 [Example 93, 6-Amino-2-(butyloxy)-9-[3-(4-piperidinyl)propyl]-7,9-dihydro-8H-purin-8-one] | < 1580
CCCCOc1nc(N)c2[nH]c(=O)n(CCCC3CCN(CC(C)C)CC3)c2n1 [Example 97, 6-Amino-2-(butyloxy)-9-{3-[1-(2-methylpropyl)-4-piperidinyl]propyl}-7,9-dihydro-8H-purin-8-one] | < 1580
CCCCOc1nc(N)c2[nH]c(=O)n(CCCC3CCN(C(CC)CC)CC3)c2n1 [Example 98, 6-Amino-2-(butyloxy)-9-{3-[1-(1-ethylpropyl)-4-piperidinyl]propyl}-7,9-dihydro-8H-burin-8-one] | < 1580
CCCCOc1nc(N)c2[nH]c(=O)n(CCCC3CCN(CCC(C)C)CC3)c2n1 [Example 99, 6-Amino-2-(butyloxy)-9-{3-[1-(3-methylbutyl)-4-piperidinyl]propyl}-7,9-dihydro-8H-purin-8-one] | < 1580
CCCCOc1nc(N)c2[nH]c(=O)n(CCCC3CCN(C4CCCC4)CC3)c2n1 [Example 100, 6-Amino-2-(butyloxy)-9-[3-(1-cyclopentyl-4-piperidinyl)propyl]-7,9-dihydro-8H-purin-8-one] | < 1580
CCCCOc1nc(N)c2[nH]c(=O)n(CCCC3CCN(CC4CCCC4)CC3)c2n1 [Example 101, 6-Amino-2-(butyloxy)-9-{3-[1-(cyclopentylmethyl)-4-piperidinyl]propyl}-7,9-dihydro-8H-purin-8-one] | < 1580
CCCCOc1nc(N)c2[nH]c(=O)n(CCCC3CCN(CCC4CCCCC4)CC3)c2n1 [Example 103, 6-Amino-2-(butyloxy)-9-{3-[1-(2-cyclohexylethyl)-4-piperidinyl]propyl}-7,9-dihydro-8H-purin-8-one] | < 1580

SMILES | EC50 [nM]
CCC[C@H](C)Oc1nc(N)c2[nH]c(=O)n(CCCC3CCN(CC)CC3)c2n1 [Example 105, 6-Amino-9-[3-(1-ethyl-4-piperidinyl)propyl]-2-{[(1S)-1-methylbutyl]oxy}-7,9-dihydro-8H-purin-8-one] | < 1580
CCCCOc1nc(N)c2[nH]c(=O)n(CCCCC3CCNCC3)c2n1 [Example 107, 6-Amino-2-(butyloxy)-9-[4-(4-piperidinyl)butyl]-7,9-dihydro-8H-purin-8-one] | < 1580
CCCCOc1nc(N)c2[nH]c(=O)n(CCCCC3CCN(C(C)C)CC3)c2n1 [Example 109, 6-Amino-2-(butyloxy)-9-{4-[1-(1-methylethyl)-4-piperidinyl]butyl}-7,9-dihydro-8H-purin-8-one] | < 1580
CCCCOc1nc(N)c2[nH]c(=O)n(CCCCC3CCN(CCCC)CC3)c2n1 [Example 110, 6-Amino-2-(butyloxy)-9-[4-(1-butyl-4-piperidinyl)butyl]-7,9-dihydro-8H-purin-8-one] | < 1580
CCCCOc1nc(N)c2[nH]c(=O)n(CCCCC3CCN(CC(C)C)CC3)c2n1 [Example 111, 6-Amino-2-(butyloxy)-9-{4-[1-(2-methylpropyl)-4-piperidinyl]butyl}-7,9-dihydro-8H-purin-8-one] | < 1580
CCCCOc1nc(N)c2[nH]c(=O)n(CCCCC3CCN(C(CC)CC)CC3)c2n1 [Example 112, 6-Amino-2-(butyloxy)-9-{4-[1-(1-ethylpropyl)-4-piperidinyl]butyl}-7,9-dihydro-8H-purin-8-one] | < 1580
CCCCOc1nc(N)c2[nH]c(=O)n(CCCCC3CCN(CCC(C)C)CC3)c2n1 [Example 113, 6-Amino-2-(butyloxy)-9-{4-[1-(3-methylbutyl)-4-piperidinyl]butyl}-7,9-dihydro-8H-purin-8-one] | < 1580
CCCCOc1nc(N)c2[nH]c(=O)n(CCCCC3CCN(C4CCCC4)CC3)c2n1 [Example 114, 6-Amino-2-(butyloxy)-9-[4-(1-cyclopentyl-4-piperidinyl)butyl]-7,9-dihydro-8H-purin-8-one] | < 1580
CCCCOc1nc(N)c2[nH]c(=O)n(CCCCC3CCN(CC4CCCC4)CC3)c2n1 [Example 115, 6-Amino-2-(butyloxy)-9-{4-[1-(cyclopentylmethyl)-4-piperidinyl]butyl}-7,9-dihydro-8H-purin-8-one] | < 1580
CCCCOc1nc(N)c2[nH]c(=O)n(CCCCC3CCN(C4CCCCC4)CC3)c2n1 [Example 116, 6-Amino-2-(butyloxy)-9-[4-(1-cyclohexyl-4-piperidinyl)butyl]-7,9-dihydro-8H-purin-8-one] | < 1580
CCCCOc1nc(N)c2[nH]c(=O)n(CCCCC3CCN(CCC4CCCCC4)CC3)c2n1 [Example 117, 6-Amino-2-(butyloxy)-9-{4-[1-(2-cyclohexylethyl)-4-piperidinyl]butyl}-7,9-dihydro-8H-purin-8-one] | < 1580
CCC[C@H](C)Oc1nc(N)c2[nH]c(=O)n(CCCCC3CCNCC3)c2n1 [Example 118, 6-Amino-2-{[(1S)-1-methylbutyl]oxy}-9-[4-(4-piperidinyl)butyl]-7,9-dihydro-8H-purin-8-one] | < 1580
CCCCNc1nc(N)c2[nH]c(=O)n(CCCCC3CCNCC3)c2n1 [Example 120, 6-Amino-2-(butylamino)-9-[4-(4-piperidinyl)butyl]-7,9-dihydro-8H-purin-8-one] | < 1580
CCCCNc1nc(N)c2[nH]c(=O)n(CCCCC3CCN(CC)CC3)c2n1 [Example 121, 6-Amino-2-(butylamino)-9-[4-(1-ethyl-4-piperidinyl)butyl]-7,9-dihydro-8H-purin-8-one] | < 1580
CCCCOc1nc(N)c2[nH]c(=O)n(CCCCCC3CCN(CC)CC3)c2n1 [Example 123, 6-Amino-2-(butyloxy)-9-[5-(1-ethyl-4-piperidinyl)pentyl]-7,9-dihydro-8H-purin-8-one] | < 1580
CCCCOc1nc(N)c2[nH]c(=O)n(CCCCCC3CCN(CCC)CC3)c2n1 [Example 124, 6-Amino-2-(butyloxy)-9-[5-(1-propyl-4-piperidinyl)pentyl]-7,9-dihydro-8H-purin-8-one] | < 1580
